ChEMBL document CHEMBL5724914, “Linking interpersonal differences in gut microbiota composition and drug biotransformation activity” (2024)

Key:
[1] = (§1) The drug is tested on WLS-006 corresponding to human gut metagenome with ENA study accession number: PRJEB37062 and ENA sample accession number: ERS12561741 for biotransformation under anaerobic condition. The drug concentrations were measured over 9 timepoints collected between 0 and 24 hours of incubation by liquid-chromatography-coupled mass spectrometry (LC–MS); details: 2 µM
[2] = as §1, with “Z-002” for “WLS-006”, “rabbit” for “human”, “ERS12561802” for “ERS12561741”; details: 2 µM
[3] = human gut metagenome, 24 h, 2 µM
[4] = as §1, with “Z-029” for “WLS-006”, “rat” for “human”, “ERS12561828” for “ERS12561741”; details: 2 µM
[5] = human gut metagenome, 24 h, 2 µM; remark: listed apart in the source
[6] = as §1, with “Z-012” for “WLS-006”, “to” for “to human gut”, “ERS12561812” for “ERS12561741”; details: 2 µM
[7] = human gut metagenome, 24 h, 2 µM; remark: listed apart in the source
[8] = as §1, with “Z-025” for “WLS-006”, “rabbit” for “human”, “ERS12561824” for “ERS12561741”; details: 2 µM
[9] = as §1, with “Z-027” for “WLS-006”, “to” for “to human gut”, “ERS12561826” for “ERS12561741”; details: 2 µM
[10] = as §1, with “Z-005” for “WLS-006”, “to” for “to human gut”, “ERS12561805” for “ERS12561741”; details: 2 µM
[11] = human gut metagenome, 24 h, 2 µM; remark: listed apart in the source
[12] = human gut metagenome, 24 h, 2 µM; remark: listed apart in the source
[13] = human gut metagenome, 24 h, 2 µM; remark: listed apart in the source
[14] = human gut metagenome, 24 h, 2 µM; remark: listed apart in the source
[15] = as §1, with “WLS-027” for “WLS-006”, “ERS12561744” for “ERS12561741”; details: 2 µM
[16] = human gut metagenome, 24 h, 2 µM; remark: listed apart in the source
[17] = as §1, with “WLS-090” for “WLS-006”, “ERS12561753” for “ERS12561741”; details: 2 µM
[18] = human gut metagenome, 24 h, 2 µM; remark: listed apart in the source
[19] = as §1, with “Z-023” for “WLS-006”, “to” for “to human gut”, “ERS12561822” for “ERS12561741”; details: 2 µM
[20] = as §1, with “Z-009” for “WLS-006”, “pig” for “human”, “ERS12561809” for “ERS12561741”; details: 2 µM
Also: call rule not given here.

Compound	Bacterial Biotransformation [1]	Bacterial Biotransformation [2]	Bacterial Biotransformation [3]	Bacterial Biotransformation [4]	Bacterial Biotransformation [5]	Bacterial Biotransformation [6]	Bacterial Biotransformation [7]	Bacterial Biotransformation [8]	Bacterial Biotransformation [9]	Bacterial Biotransformation [10]	Bacterial Biotransformation [11]	Bacterial Biotransformation [12]	Bacterial Biotransformation [13]	Bacterial Biotransformation [14]	Bacterial Biotransformation [15]	Bacterial Biotransformation [16]	Bacterial Biotransformation [17]	Bacterial Biotransformation [18]	Bacterial Biotransformation [19]	Bacterial Biotransformation [20]
OC(CCN1CCCCC1)(c1ccccc1)C1CCCCC1 (stereo not given) [TRIHEXYPHENIDYL]	Compound metabolized	Compound metabolized	Compound metabolized	Compound NOT metabolized	Compound metabolized	Compound NOT metabolized	Compound metabolized	Compound NOT metabolized	Compound NOT metabolized	Compound metabolized	Compound metabolized	Compound metabolized	Compound metabolized	Compound NOT metabolized	Compound NOT metabolized	Compound NOT metabolized	Compound metabolized	Compound NOT metabolized	Compound metabolized	Compound metabolized
CCc1nc(N)nc(N)c1-c1ccc(Cl)cc1 [PYRIMETHAMINE]	Compound NOT metabolized	Compound metabolized	Compound metabolized	Compound NOT metabolized	Compound NOT metabolized	Compound NOT metabolized	Compound NOT metabolized	Compound NOT metabolized	Compound NOT metabolized	Compound NOT metabolized	Compound NOT metabolized	Compound NOT metabolized	Compound NOT metabolized	Compound NOT metabolized	Compound NOT metabolized	Compound NOT metabolized	Compound metabolized	Compound NOT metabolized	Compound NOT metabolized	Compound NOT metabolized
CC(C)NCC(O)COc1ccc(COCCOC(C)C)cc1.CC(C)NCC(O)COc1ccc(COCCOC(C)C)cc1.O=C(O)/C=C/C(=O)O (stereo not given) [BISOPROLOL FUMARATE]	Compound metabolized	Compound metabolized	Compound metabolized	Compound NOT metabolized	Compound NOT metabolized	Compound NOT metabolized	Compound NOT metabolized	Compound metabolized	Compound NOT metabolized	Compound NOT metabolized	Compound NOT metabolized	Compound NOT metabolized	Compound metabolized	Compound metabolized	Compound NOT metabolized	Compound NOT metabolized	Compound metabolized	Compound NOT metabolized	Compound metabolized	Compound metabolized
CN1CCN(C2=Nc3cc(Cl)ccc3Nc3ccccc32)CC1 [CLOZAPINE]	Compound NOT metabolized	Compound metabolized	Compound metabolized	Compound NOT metabolized	Compound NOT metabolized	Compound NOT metabolized	Compound metabolized	Compound NOT metabolized	Compound NOT metabolized	Compound NOT metabolized	Compound NOT metabolized	Compound NOT metabolized	Compound metabolized	Compound NOT metabolized	Compound metabolized	Compound NOT metabolized	Compound metabolized	Compound NOT metabolized	Compound metabolized	Compound NOT metabolized
CNC(=C[N+](=O)[O-])NCCSCc1csc(CN(C)C)n1 [NIZATIDINE]	Compound metabolized	Compound NOT metabolized	Compound metabolized	Compound NOT metabolized	Compound metabolized	Compound NOT metabolized	Compound metabolized	Compound NOT metabolized	Compound NOT metabolized	Compound NOT metabolized	Compound NOT metabolized	Compound metabolized	Compound NOT metabolized	Compound metabolized	Compound NOT metabolized	Compound metabolized	Compound NOT metabolized	Compound NOT metabolized	Compound NOT metabolized	Compound NOT metabolized
CN1C(C(=O)Nc2ccccn2)=C(O)c2sccc2S1(=O)=O [TENOXICAM]	Compound NOT metabolized	Compound NOT metabolized	Compound NOT metabolized	Compound NOT metabolized	Compound NOT metabolized	Compound NOT metabolized	Compound NOT metabolized	Compound metabolized	Compound NOT metabolized	Compound NOT metabolized	Compound NOT metabolized	Compound metabolized	Compound NOT metabolized	Compound NOT metabolized	Compound NOT metabolized	Compound NOT metabolized	Compound NOT metabolized	Compound NOT metabolized	Compound metabolized	Compound NOT metabolized
CCOC(=O)[C@H](CCc1ccccc1)N[C@@H](C)C(=O)N1[C@H](C(=O)O)C[C@@H]2CCC[C@@H]21	Compound metabolized	Compound metabolized	Compound metabolized	Compound NOT metabolized	Compound metabolized	Compound metabolized	Compound metabolized	Compound NOT metabolized	Compound NOT metabolized	Compound metabolized	Compound NOT metabolized	Compound metabolized	Compound metabolized	Compound metabolized	Compound metabolized	Compound NOT metabolized	Compound metabolized	Compound metabolized	Compound metabolized	Compound metabolized
